Reference: patent publication US10501460B2, “Heterocyclic compounds and uses thereof” (Plexxikon Inc., priority 2013, dated 2019)

Test system: bromodomain
Assay: Bromodomain cell assays of Example 40 (at least one of them)
Format: cell-based
Settings: in at least one of the bromodomain cell assays described in Example 40
Source text: Published bromodomain inhibitors JQ1 and iBET 151 have shown activity in variety of cancer cells such leukemia and lymphoma, multiple myeloma cells, NUT midline carcinoma and glioblastoma cells (Dawson M A et al. 2011; Delmore J E 2011; Chen Z et al. 2013; Filippakopoulos P et al. 2010; Mertz J A et al. 2011; Ott C J et al. 2012). In this study, we test compounds in different cancer cell lines. MV-4-11 and MOLM-13 are AML cell lines harboring a MLL-AF4 and MLL-AF9 translocation, respectively. MM.1S is a multiple myeloma cell line. SK-N-AS, IMR-32 and SK-N-BE(2) are neuroblastoma cell lines. IMR-32 and SK-N-BE(2) cell lines harbor MYCN amplifications. MV-4-11, MM.1S, IMR-32, SK-N-AS and SK-N-BE(2) were obtained from ATCC (IL, USA) and MOLM-13 were purchased from DSMZ (Braunschweig, German). Cells are cultured as recommended by their sources. For growth inhibition studies 3000 cells are seeded in wells of a 96-well plate in 75 μL of culture media. After several hours, growth media containing compounds of formula (I) are added to the wells. Compound at a maximal concentration of 5 mM was serially diluted 1:3 for a total of 8 point titration with DMSO as a control. A 1 μL aliquot of each dilution point is added to 249 μL growth media and 75 μL is added to each well containing cells, providing 10 μM compound at the maximum concentration point. The final concentration of DMSO in all wells is 0.2%. Cells are incubated for 72 hours, and 25 μL of CellTiter Glo Reagent (Promega Ga., USA) is added to each well. Plates are shaken for approximately 10 minutes and chemiluminescent signal is read on Tecan microplate reader. The measured luminescence correlates directly with cell number.
All data is normalized to the mean of eight DMSO high control wells on each plate. A four parameter curve fit of the following formula was then applied: Y=a+(b−a)/(1+(x/c)^d) Where ‘a’ is the minimum, ‘b’ is the maximum, ‘c’ is the pIC50 and ‘d’ is the Hill slope. […] Myc Reporter Assay
In MV-4-11 cells, BRD2, BRD3 and BRD4 bind to the promoter region of MYC and regulate its transcription (Dawson M A et al. 2011). The literature bromodomain inhibitor iBET 151 could disrupt BRD4 recruitment to the MYC promoter and subsequently downregulate c-myc transcription (Dawson M A et al. 2011). Myc protein is a transcription factor that heterodimerizes with an obligatory partner Max and regulates the transcription of genes important for cell proliferation, differentiation, and apoptosis. This Myc reporter assay is used to monitor the inhibitory effect of compound of formula (I) on Myc dependent gene expression. Effective compounds could have potential therapeutic effects in Myc-driven tumors.
The MV-4-11 Myc reporter cell line is established by infecting MV-4-11 with VSV-g pseudotyped lentivirus expressing the firefly luciferase gene under the control of a minimal (m) CMV promoter and tandem repeats of the E-box transcriptional response element (TRE) (Qiagen IL, USA) and selecting cells in […] Puromycin.
The MV-4-11 Myc reporter cell line is maintained in Iscove's Modified Dulbecco's Medium containing 10% FBS, 1% PenStep and 2.5 μg/ml Puromycin. Cells are incubated at 37° C. in a humidified atmosphere with 5% CO2. 25,000 cells are seeded in 96-well plate in 50 μL of culture media. After several hours, growth media containing 2× compounds are added to the wells. Compound at a maximal concentration of 5 mM is serially diluted 1:3 for a total of 8 point titration. A 1 μl aliquot of each dilution point is added to 249 μl growth media and 50 μl is added to each well containing cells, providing 10 μM compound at the maximum concentration point. DMSO treated cells serve as a high control and 10 μM JQ1 treated cells serve as a low control. Cells are incubated for a further 24 hours and 25 μL of CellTiter-Fluo Reagent (Promega Ga., USA) is added to each well. Plates are shaken for approximately 2 minutes and incubated at 37° C. for 0.5 hour. […]

With `COCCn1cc(-c2cn(CC3(F)CCCCC3)c3cc(-c4c(C)noc4C)cnc23)cn1` [P-0238, 4-[1-[(1-fluorocyclohexyl)methyl]-3-[1-(2-methoxyethyl)pyrazol-4-yl]pyrrolo[3,2-b]pyridin-6-yl]-3,5-dimethyl-isoxazole] the IC50 was less than 10 µM.
In the case of `[2H]C([2H])(F)C(c1ccccc1)n1cc(-c2cnn(C)c2)c2ncc(-c3c(C)noc3C)cc21` (stereo not drawn) [P-0233, 4-[1-(2,2-dideuterio-2-fluoro-1-phenyl-ethyl)-3-(1-methylpyrazol-4-yl)pyrrolo[3,2-b]pyridin-6-yl]-3,5-dimethyl-isoxazole], the IC50 is reported as less than 10 µM.
Compound `Cc1noc(C)c1-c1cnc2c(-c3cnn(C(F)F)c3)cn(CC3(F)CCC(=O)CC3)c2c1` [P-0242, 4-[[3-[1-(difluoromethyl)pyrazol-4-yl]-6-(3,5-dimethylisoxazol-4-yl)pyrrolo[3,2-b]pyridin-1-yl]methyl]-4-fluoro-cyclohexanone] has an IC50 of less than 10 µM.
Work on `Cc1noc(C)c1-c1cnc2c(-c3cnn(C(F)F)c3)cn(CC3(F)CCC(F)(F)CC3)c2c1` [P-0243, 4-[3-[1-(difluoromethyl)pyrazol-4-yl]-1-[(1,4,4-trifluorocyclohexyl)methyl]pyrrolo[3,2-b]pyridin-6-yl]-3,5-dimethyl-isoxazole] yielded an IC50 of less than 10 µM.
`Cc1noc(C)c1-c1ccc2c(-c3cnn(C)c3)cn(C(C)c3ccccc3)c2c1` (stereo not drawn) [P-0232, 3,5-dimethyl-4-[3-(1-methylpyrazol-4-yl)-1-(1-phenylethyl)indol-6-yl]isoxazole] gave an IC50 of less than 10 µM.
`Cc1noc(C)c1-c1cnc2ccn(S(=O)(=O)N3CCCCC3)c2c1` [P-0067, 3,5-dimethyl-4-[1-(1-piperidylsulfonyl)pyrrolo [3,2-b]pyridin-6-yl] isoxazole] showed an IC50 of less than 10 µM.
`Cc1noc(C)c1-c1cnc2c(I)c(C(F)(F)F)n(C(C)c3ccccc3)c2c1` (stereo not drawn) [P-0245, 4-[3-iodo-1-(1-phenylethyl)-2-(trifluoromethyl)pyrrolo[3,2-b]pyridin-6-yl]-3,5-dimethyl-isoxazole] was tested, and the IC50 was less than 10 µM.
With `Cc1noc(C)c1-c1cnc2[nH]ccc2c1` [P-0246, 3,5-dimethyl-4-(1H-pyrrolo[2,3-b]pyridin-5-yl)isoxazole] the IC50 was less than 10 µM.
In the case of `Cc1noc(C)c1-c1ccc2c(-c3cnn(C)c3)cn(Cc3ccccc3F)c2c1` [P-0226, 4-[1-[(2-fluorophenyl)methyl]-3-(1-methylpyrazol-4-yl)indol-6-yl]-3,5-dimethyl-isoxazole], the IC50 is reported as less than 10 µM.
`Cc1noc(C)c1-c1cnc2c(-c3cnn(C(F)F)c3)cn(CC3(F)CCC4(CC3)OCCO4)c2c1` [P-0241, 4-[3-[1-(difluoromethyl)pyrazol-4-yl]-1-[(8-fluoro-1,4-dioxaspiro[4.5]decan-8-yl)methyl]pyrrolo[3,2-b]pyridin-6-yl]-3,5-dimethyl-isoxazole] gave an IC50 of less than 10 µM.
`Cc1noc(C)c1-c1cnc2c(I)cn(CC3(F)CCCCC3)c2c1` [P-0234, 4-[1-[(1-fluorocyclohexyl)methyl]-3-iodo-pyrrolo[3,2-b]pyridin-6-yl]-3,5-dimethyl-isoxazole] showed an IC50 of less than 10 µM.
In the case of `Cc1noc(C)c1-c1cnc2c(-c3cnn(C(F)F)c3)cn(CC3(F)CC=C(F)CC3)c2c1` (stereo not drawn) [P-0244, 4-[1-[(1,4-difluorocyclohex-3-en-1-yl)methyl]-3-[1-(difluoromethyl)pyrazol-4-yl]pyrrolo[3,2-b]pyridin-6-yl]-3,5-dimethyl-isoxazole], the IC50 is reported as less than 10 µM.
`Cc1noc(C)c1-c1cnc2c(-c3cn[nH]c3)cn(CC3(F)CCCCC3)c2c1` [P-0239, 4-[1-[(1-fluorocyclohexyl)methyl]-3-(1H-pyrazol-4-yl)pyrrolo[3,2-b]pyridin-6-yl]-3,5-dimethyl-isoxazole] showed an IC50 of less than 10 µM.
Compound `Cc1noc(C)c1-c1cnc2c(I)c(C(F)(F)F)[nH]c2c1` [P-0225, 4-[3-iodo-2-(trifluoromethyl)-1H-pyrrolo[3,2-b]pyridin-6-yl]-3,5-dimethyl-isoxazole] has an IC50 of less than 10 µM.
With `Cc1noc(C)c1-c1cnc2c(-c3cnn(C(F)F)c3)cn(CC3(F)CCCCC3)c2c1` [P-0235, 4-[3-[1-(difluoromethyl)pyrazol-4-yl]-1-[(1-fluorocyclohexyl)methyl]pyrrolo[3,2-b]pyridin-6-yl]-3,5-dimethyl-isoxazole] the IC50 was less than 10 µM.
